Reference: patent US9181234B2, “Antibacterial compounds” (priority 2010, dated 2015)
≈ marks a conversion by molar mass, not a printed value.

Tests used:
physchem = conditions: kinetic from dmso stock
Method in brief: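 DMSO doubling dilutions were diluted twenty-fold into 100 mM citrate (pH 4), PBS (pH 7.4) or carbonate-bicarbonate (pH 9). After 24 h equilibration at room temperature, absorbance was read at 620 nm. The reported value is the highest concentration without measurable precipitate.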

[1] = test system: Staphylococcus aureus (Isolate ID ATCC 29213); experiment: Antibacterial activity, MIC, S. aureus; format: cell-based; conditions: Staphylococcus aureus, ATCC29213, Gram positive strain; broth microdilution or agar dilution
Method in brief: (§1)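 Per CLSI standard M7-A7, minimum inhibitory concentrations were measured by agar dilution or by broth microdilution.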

[2] = test system: Enterococcus faecalis (Isolate ID ATCC 29212); experiment: Antibacterial activity, MIC, E. faecalis; format: cell-based; conditions: Enterococcus faecalis, ATCC29212; Gram positive strain; broth microdilution or agar dilution
Description: Bacterial Assay: Determination of Antibacterial Activity
Compounds of the invention were tested for antimicrobial activity by susceptibility testing in liquid or on solid media. MICs for compounds against each strain were determined by the broth microdilution or agar dilution method according to the guidelines of the Clinical Laboratories and Standards Institute, formerly the National Committee for Clinical Laboratory Standards (Clinical Laboratories and Standards Institute. Methods for Dilution Antimicrobial Susceptibility Tests for Bacteria That Grow Aerobically; Approved Standard—Seventh Edition. Document M7-A7. CLSI, Wayne, Pa., 2006; Clinical Laboratories and Standards Institute. The gram positive bacterial strains tested include S. aureus (Staphylococcus aureus (Isolate ID ATCC 29213)), E. faecalis (Enterococcus faecalis (Isolate ID ATCC 29212)) and S. pyogenes (Streptococcus pyogenes (Isolate ID ATCC 51339)). The gram negative bacterial strains tested include H. influenzae (Haemophilus influenzae (Isolate ID ATCC 49247))

[3] = test system: Streptococcus pyogenes (Isolate ID ATCC 51339); experiment: Antibacterial activity, MIC, S. pyogenes; format: cell-based; conditions: Streptococcus pyogenes, ATCC51339, Gram positive strain; broth microdilution or agar dilution
Method in brief: as §1

[4] = test system: Haemophilus influenzae (Isolate ID ATCC 49247); experiment: Antibacterial activity, MIC, H. influenzae; format: cell-based; conditions: Haemophilus influenzae, ATCC49247; Gram negative strain; broth microdilution or agar dilution
Method in brief: as §1

[5] = pH 7.4, aqueous buffer, Solubility (pH 7.4)
[6] = pH 7.4, aqueous buffer, Solubility Range
[7] = pH 7.4, aqueous buffer, Max Solubility
[8] = pH 7.4, aqueous buffer, Solubility Range (maximum solubility)

Row | SMILES | solubility at 24 h (physchem; [5]) [mg/mL] | solubility at 24 h (physchem; [6]) [mg/mL] | MIC [1] [mg/L] | MIC [2] [mg/L] | MIC [3] [mg/L] | MIC [4] [mg/L] | solubility at 24 h (physchem; [7]) [mg/mL] | solubility at 24 h (physchem; [8]) [mg/mL] | solubility at 24 h (physchem; pH 9, aqueous buffer, Max Solubility) [mg/mL] | solubility at 24 h (physchem; pH 9, aqueous buffer, Solubility Range (maximum solubility)) [mg/mL]
1 | CCNC(=O)Nc1nc2cc(-c3cnc(N4CCC(C)(C(=O)O)CC4)nc3)cc(-c3cnccn3)c2s1 [Compound 11] | ≥ 0.8 | > 0.8 | ≤ 0.25 | ≤ 0.25 | ≤ 0.25 | 1 to 16 (≈ 1.93 to 30.9 µM) |  |  |  | 
2 | CCNC(=O)Nc1nc2cc(-c3cnc(N4CCC(C)(C(=O)O)CC4)nc3)cc(-c3nccc(C)n3)c2s1 [Compound 12] | ≥ 0.8 | > 0.8 | ≤ 0.25 | ≤ 0.25 | ≤ 0.25 | 1 to 16 (≈ 1.88 to 30 µM) |  |  |  | 
3 | CCNC(=O)Nc1nc2cc(-c3cnc(N4CCC(C)(C(=O)O)CC4)nc3)cc(-c3ncccc3C#N)c2s1 [Compound 13] | 0.1 (≈ 184 µM) | 0.0125 to 0.4 (≈ 23 to 737 µM) | ≤ 0.25 | ≤ 0.25 | ≤ 0.25 | 1 to 16 (≈ 1.84 to 29.5 µM) |  |  |  | 
4 | CCNC(=O)Nc1nc2cc(-c3cnc(N4CCC(C)(C(=O)O)CC4)nc3)cc(-c3ccc(C#N)cn3)c2s1 [Compound 14] | ≥ 0.8 | > 0.8 | ≤ 0.25 | ≤ 0.25 | ≤ 0.25 | 0.25 to 1 (≈ 0.461 to 1.84 µM) |  |  |  | 
5 | CCNC(=O)Nc1nc2cc(-c3cnc(N4CCC(C)(C(=O)O)CC4)nc3)cc(-c3cc(OC)ncn3)c2s1 [Compound 15] | ≥ 0.8 | > 0.8 | ≤ 0.25 | ≤ 0.25 | ≤ 0.25 | 0.25 to 1 (≈ 0.456 to 1.82 µM) |  |  |  | 
6 | CCNC(=O)Nc1nc2cc(-c3cnc(N4CCC(C)(C(=O)O)CC4)nc3)cc(-c3cc(C#N)ccn3)c2s1 [Compound 16] | 0.00625 (≈ 11.5 µM) | < 0.0125 | ≤ 0.25 | ≤ 0.25 | ≤ 0.25 | 1 to 16 (≈ 1.84 to 29.5 µM) |  |  |  | 
7 | CCNC(=O)Nc1nc2cc(-c3cnc(N4CCC(C)(C(=O)O)CC4)nc3)cc(-c3cc(OC)ccn3)c2s1 [Compound 17] | ≥ 0.8 | > 0.8 | ≤ 0.25 | ≤ 0.25 | ≤ 0.25 | 0.25 to 1 (≈ 0.457 to 1.83 µM) |  |  |  | 
8 | CCNC(=O)Nc1nc2cc(-c3cnc(N4CCC(C)(C(=O)O)CC4)nc3)cc(-c3ncccc3F)c2s1 [Compound 18] | ≥ 0.8 | > 0.8 | ≤ 0.25 | ≤ 0.25 | ≤ 0.25 | 1 to 16 (≈ 1.87 to 29.9 µM) | ≥ 0.8 | > 0.8 |  | 
9 | CCNC(=O)Nc1nc2cc(-c3cnc(N4CCC(C)(C(=O)O)CC4)nc3)cc(-c3ncco3)c2s1 [Compound 19] | ≥ 0.8 | > 0.8 | 0.25 to 1 (≈ 0.493 to 1.97 µM) | ≤ 0.25 | ≤ 0.25 | 1 to 16 (≈ 1.97 to 31.5 µM) |  |  |  | 
10 | CCNC(=O)Nc1nc2cc(-c3cnc(N4CCC(C)(C(=O)O)CC4)nc3)cc(-c3cncs3)c2s1 [Compound 20] | ≥ 0.8 | > 0.8 | 0.25 to 1 (≈ 0.477 to 1.91 µM) | ≤ 0.25 | ≤ 0.25 | 1 to 16 (≈ 1.91 to 30.6 µM) |  |  |  | 
11 | CCCCC#Cc1cc(-c2cnc(N3CCC(C)(C(=O)O)CC3)nc2)cc2nc(NC(=O)NCC)sc12 [Compound 22] | ≥ 0.8 | > 0.8 | 0.25 to 1 (≈ 0.48 to 1.92 µM) | ≤ 0.25 | 1 to 16 (≈ 1.92 to 30.7 µM) | > 16 |  |  |  | 
12 | CCNC(=O)Nc1nc2cc(-c3cnc(N4CCC(C)(C(=O)O)CC4)nc3)cc(-c3csc(OC)n3)c2s1 [Compound 23, 1-[5-[2-(ethylcarbamoylamino)-7-(2-methoxythiazol-4-yl)-1,3-benzothiazol-5-yl]pyrimidin-2-yl]-4-methyl-piperidine-4-carboxylic acid] | ≥ 0.8 | > 0.8 | ≤ 0.25 | ≤ 0.25 | ≤ 0.25 | 1 to 16 (≈ 1.81 to 28.9 µM) |  |  |  | 
13 | CCNC(=O)Nc1nc2cc(-c3cnc(N4CCC(C)(C(=O)O)CC4)nc3)cc(-c3cnn(C)c3)c2s1 [Compound 24] | ≥ 0.8 | > 0.8 | 1 to 16 (≈ 1.92 to 30.7 µM) | ≤ 0.25 | 0.25 to 1 (≈ 0.48 to 1.92 µM) | 1 to 16 (≈ 1.92 to 30.7 µM) |  |  |  | 
14 | CCNC(=O)Nc1nc2cc(-c3cnc(N4CCC(C)(C(=O)O)CC4)nc3)cc(-c3cn[nH]c3)c2s1 [Compound 25] | ≥ 0.8 | > 0.8 | > 16 | 0.25 to 1 (≈ 0.493 to 1.97 µM) | 0.25 to 1 (≈ 0.493 to 1.97 µM) | > 16 |  |  |  | 
15 | CCNC(=O)Nc1nc2cc(-c3cnc(N4CCC(C)(C(=O)O)CC4)nc3)cc(O)c2s1 [Compound 26, 1-[5-[2-(ethylcarbamoylamino)-7-hydroxy-1,3-benzothiazol-5-yl]pyrimidin-2-yl]-4-methyl-piperidine-4-carboxylic acid] | ≥ 0.8 | > 0.8 | > 16 | 1 to 16 (≈ 2.19 to 35 µM) | 1 to 16 (≈ 2.19 to 35 µM) | > 16 |  |  |  | 
16 | CCNC(=O)Nc1nc2cc(-c3cnc(N4CCC(C)(C(=O)O)CC4)nc3)cc(-c3nc(CO)cs3)c2s1 [Compound 27] | ≥ 0.8 | > 0.8 | 1 to 16 (≈ 1.81 to 28.9 µM) | ≤ 0.25 | ≤ 0.25 | 1 to 16 (≈ 1.81 to 28.9 µM) |  |  |  | 
17 | C#Cc1cc(-c2cnc(N3CCC(C)(C(=O)O)CC3)nc2)cc2nc(NC(=O)NCC)sc12 [Compound 28] | ≥ 0.8 | > 0.8 | 0.25 to 1 (≈ 0.538 to 2.15 µM) | ≤ 0.25 | 0.25 to 1 (≈ 0.538 to 2.15 µM) | 1 to 16 (≈ 2.15 to 34.4 µM) |  |  |  | 
18 | CCNC(=O)Nc1nc2cc(-c3cnc(N4CCC(C)(C(=O)O)CC4)nc3)cc(-n3cccn3)c2s1 [Compound 29] | ≥ 0.8 | > 0.8 | 0.25 to 1 (≈ 0.493 to 1.97 µM) | ≤ 0.25 | 0.25 to 1 (≈ 0.493 to 1.97 µM) | 1 to 16 (≈ 1.97 to 31.6 µM) |  |  |  | 
19 | CCNC(=O)Nc1nc2cc(-c3cnc(N4CCC(C)(C(=O)O)CC4)nc3)cc(-c3cccn3C)c2s1 [Compound 30] | ≥ 0.8 | > 0.8 | 0.25 to 1 (≈ 0.481 to 1.92 µM) | ≤ 0.25 | 0.25 to 1 (≈ 0.481 to 1.92 µM) | 1 to 16 (≈ 1.92 to 30.8 µM) |  |  |  | 
20 | CCNC(=O)Nc1nc2cc(-c3cnc(N4CCC(C)(C(=O)O)CC4)nc3)cc(-c3ccc(C)cn3)c2s1 [Compound 31] | ≥ 0.8 | > 0.8 | ≤ 0.25 | ≤ 0.25 | ≤ 0.25 | 0.25 to 1 (≈ 0.47 to 1.88 µM) | ≥ 0.8 | > 0.8 |  | 
21 | CCNC(=O)Nc1nc2cc(-c3cnc(N4CCC(C)(C(=O)O)CC4)nc3)cc(-c3cccc(C#N)n3)c2s1 [Compound 32] | 0.4 (≈ 737 µM) | 0.4 to 0.8 (≈ 737 to 1470 µM) | ≤ 0.25 | ≤ 0.25 | ≤ 0.25 | 1 to 16 (≈ 1.84 to 29.5 µM) | 0.4 (≈ 737 µM) | 0.4 to 0.8 (≈ 737 to 1470 µM) |  | 
22 | CCNC(=O)Nc1nc2cc(-c3cnc(N4CCC(C)(C(=O)O)CC4)nc3)cc(-n3ccnc3)c2s1 [Compound 33] | 0.2 (≈ 395 µM) | 0.0125 to 0.4 (≈ 24.7 to 790 µM) | > 16 | 1 to 16 (≈ 1.97 to 31.6 µM) | 1 to 16 (≈ 1.97 to 31.6 µM) | > 16 |  |  | ≥ 0.8 | > 0.8
